The source of these data is publication PMC12444507 (ACS Omega, 2025).

The subject of data set [1] is SARS-CoV-2 strain JPN/TY/WK-521 (SARS-CoV-2^WK-521, ancestral Wuhan strain). In kind it is cell-based.
The test system of data set [2] is SARS-CoV-2^WK-521 infected VeroE6 cells.
Data set [3] concerns SARS-CoV-2 strain JPN/TY/WK-521 (SARS-CoV-2^WK-521, ancestral Wuhan strain). The conditions noted are these: cited from earlier work.

Turning to `CC(C)(C)[C@H](NC(=O)C(F)(F)F)C(=O)N1C[C@H]2[C@@H]([C@H]1C(=O)N[C@@H](C[C@@H]1CCNC1=O)C(=O)c1nc3c(Br)c(F)ccc3s1)C2(C)C` [Compound 15], in data set [1], the “lower potency than TKB272 (8)” value is listed as “approximately 3 fold”.
For the compound `CC(C)(C)[C@H](NC(=O)C(F)(F)F)C(=O)N1C[C@H]2[C@@H]([C@H]1C(=O)N[C@@H](C[C@@H]1CCNC1=O)C(=O)c1nc3cc(F)ccc3s1)C2(C)C` [TKB272 (8)], the revertant mutagenicity entry in the data set with bacterial mutation is on record as “no revertant mutagenicity”. Besides, in data set [2], the “cytotoxicity in immunostaining experiments” value was “no significant cytotoxicity”.
For the compound `CC(C)(C)[C@H](NC(=O)C(F)(F)F)C(=O)N1C[C@H]2[C@@H]([C@H]1C(=O)N[C@H](C#N)C[C@@H]1CCNC1=O)C2(C)C` [nirmatrelvir (1), nirmatrelvir], the EC50 (commonly the midpoint of the concentration-response curve) in data set [3] is 770 ± 180 nM.
